Laboratory results reported in the NIST ThermoML archive (doi:10.1021/je3003578).

Assay: xn = mol fraction of the nth substance listed
Conditions: 101 kPa, Liquid

CCOCCCN [3-ethoxy-1-propanamine] + O
mass density [kg/m3]
Conditions	283.15 K	288.15 K	293.15 K	298.15 K	303.15 K
x1 = 0.000108	999.685	999.073	998.176	997.018	995.609
x1 = 0.000319	999.612	998.997	998.098	996.937	995.522
x1 = 0.000625	999.489	–	997.974	996.811	995.392
x1 = 0.000707	999.462	–	–	–	–
x1 = 0.000942	999.378	998.755	997.845	996.67	995.256
x1 = 0.001046	999.335	–	–	–	–
x1 = 0.001284	999.244	998.623	997.706	996.533	995.106
x1 = 0.001947	999.006	998.367	997.459	996.269	994.822
x1 = 0.002912	998.665	998.003	997.058	995.851	994.409
x1 = 0.00392	998.32	997.639	996.673	995.45	993.991
x1 = 0.005098	997.943	997.245	996.25	995.024	993.55
x1 = 0.007456	997.213	996.459	–	–	–
x1 = 0.00981	996.579	995.782	994.681	993.348	991.796
x1 = 0.0148	995.454	994.495	993.269	991.824	990.144
x1 = 0.01956	994.585	993.456	992.092	990.53	988.708
x1 = 0.02832	993.306	991.899	990.264	988.433	986.387
x1 = 0.03914	992.137	990.361	988.357	986.207	983.868
x1 = 0.05082	991.126	988.889	986.504	983.995	981.31
x1 = 0.06674	989.564	986.858	983.968	980.975	977.903
x1 = 0.09536	985.793	982.292	978.874	975.145	971.645
x1 = 0.1209	981.126	977.267	973.326	969.369	965.331
x1 = 0.1452	976.001	971.617	967.737	963.561	959.341
x1 = 0.1844	967.807	962.845	958.517	954.192	949.751
x1 = 0.2121	960.275	955.87	951.456	947.02	942.563
x1 = 0.2438	954.343	948.987	944.543	940.074	935.55
x1 = 0.2923	944.589	939.953	935.456	930.954	926.38
x1 = 0.361	932.627	926.801	922.252	917.676	913.059
x1 = 0.4369	921.019	916.153	911.545	906.929	902.254
x1 = 0.4937	911.932	907.295	902.62	897.985	893.262
x1 = 0.5513	904.655	900.039	895.311	890.64	885.906
x1 = 0.6214	896.914	892.186	887.472	882.775	877.992
x1 = 0.6775	891.266	886.402	881.634	876.891	872.12
x1 = 0.6943	889.59	884.998	880.062	875.446	870.586
x1 = 0.7458	884.839	880.089	875.436	870.539	865.744
x1 = 0.7733	882.976	–	873.142	868.397	863.589
x1 = 0.7947	880.664	875.868	871.067	866.312	861.557
x1 = 0.8276	878.228	873.43	868.648	863.952	859.105
x1 = 0.8488	876.201	871.511	–	862.009	–
x1 = 0.8744	874.608	–	864.922	860.155	855.327
x1 = 0.8993	872.317	867.858	862.73	858.054	853.46
x1 = 0.9189	871.084	866.306	861.498	856.71	851.896
x1 = 0.9349	–	864.955	–	–	–
x1 = 0.9411	869.403	–	859.742	855.013	850.2
x1 = 0.9436	–	864.338	–	–	–
x1 = 0.9486	868.869	–	859.29	854.542	849.691
x1 = 0.9601	868.041	863.267	–	–	–
x1 = 0.9613	–	–	858.247	853.53	848.739
x1 = 0.9746	–	–	857.315	852.649	847.719
x1 = 0.9755	–	862.192	–	–	–
x1 = 0.985	866.322	861.525	–	–	–
x1 = 0.9871	–	–	856.398	851.83	846.839
x1 = 1	865.36	860.63	855.715	851.018	846.075
